Results as given in patent US10703735B2, “4-phenyl-coumarin derivatives, processes for their preparation and uses thereof for the treatment of cancer” (Lead Discovery Center GmbH, priority 2018, dated 2020).

How the values were obtained:
[1] = target: mitochondrial RNA-polymerase (POLRMT) (Mus musculus, UniProt Q8BKF1); test: Homogeneous TR-FRET assay for mitochondrial transcription activity; type: biochemical; conditions: homogeneous TR-FRET assay according to Example 4; read-out: mitochondrial transcription activity (IC-50)
Sequence of mitochondrial RNA-polymerase (POLRMT) (Q8BKF1 42-1207): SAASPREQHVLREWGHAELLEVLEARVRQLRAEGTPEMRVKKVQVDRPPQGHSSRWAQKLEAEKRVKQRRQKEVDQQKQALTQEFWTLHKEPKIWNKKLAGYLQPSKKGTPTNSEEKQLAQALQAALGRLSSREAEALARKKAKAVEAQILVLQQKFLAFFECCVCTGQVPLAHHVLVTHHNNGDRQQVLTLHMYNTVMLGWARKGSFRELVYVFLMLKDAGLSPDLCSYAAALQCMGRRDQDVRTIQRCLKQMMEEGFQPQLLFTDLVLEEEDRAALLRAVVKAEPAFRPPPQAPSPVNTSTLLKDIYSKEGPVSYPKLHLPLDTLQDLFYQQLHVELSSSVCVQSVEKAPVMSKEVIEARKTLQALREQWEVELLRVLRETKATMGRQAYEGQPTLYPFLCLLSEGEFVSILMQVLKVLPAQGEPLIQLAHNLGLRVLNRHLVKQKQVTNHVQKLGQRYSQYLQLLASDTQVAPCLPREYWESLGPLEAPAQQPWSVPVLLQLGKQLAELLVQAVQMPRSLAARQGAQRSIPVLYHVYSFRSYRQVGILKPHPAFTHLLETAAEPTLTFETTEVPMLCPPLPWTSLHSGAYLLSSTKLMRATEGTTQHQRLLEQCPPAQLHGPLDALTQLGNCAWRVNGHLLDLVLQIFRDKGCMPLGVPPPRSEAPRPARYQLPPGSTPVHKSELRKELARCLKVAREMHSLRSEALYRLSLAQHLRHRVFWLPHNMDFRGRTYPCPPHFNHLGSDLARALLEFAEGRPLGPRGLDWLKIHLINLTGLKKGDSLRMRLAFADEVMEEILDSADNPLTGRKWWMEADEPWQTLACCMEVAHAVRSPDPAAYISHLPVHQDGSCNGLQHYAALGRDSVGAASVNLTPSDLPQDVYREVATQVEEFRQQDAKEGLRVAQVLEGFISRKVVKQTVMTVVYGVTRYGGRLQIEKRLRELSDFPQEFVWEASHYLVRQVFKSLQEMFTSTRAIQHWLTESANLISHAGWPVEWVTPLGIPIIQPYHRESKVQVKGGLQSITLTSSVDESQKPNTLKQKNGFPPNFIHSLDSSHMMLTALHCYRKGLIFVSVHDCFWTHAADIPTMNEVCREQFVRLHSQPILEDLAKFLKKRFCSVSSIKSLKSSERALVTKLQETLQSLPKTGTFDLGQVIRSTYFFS
Source text: The TR-FRET assay was basically conducted as described in WO 2016/193231A1, especially as described in example 1 (hereby incorporated by reference). With respect to the background of the mitochondrial transcription it is referred to Falkenberg et al. (2002) and Posse et al. (Posse et al. 2015). The method monitors the activity of mitochondrial RNA-polymerase via detection of the formation of its product, a 407 bp long RNA sequence. Detection of the product is facilitated by hybridization of two DNA-oligonucleotide probes to specific and adjacent sequences within the RNA product sequence. Upon annealing of the probes, two fluorophores that are coupled directly to an acceptor nucleotide probe (ATT0647, 5′) or introduced via a coupled streptavidin interacting with a biotinylated donor nucleotide probe on the other side (Europium cryptate, 3) are brought into sufficient proximity to serve as a fluorescence-donor-acceptor pair as generally described in Walters and Namchuk (2003). Thus, a FRET signal at 665 nm is generated upon excitation at 340 nm.
Briefly, the protocol described here was applied for screening and activity determination in a low-volume 384-well microtiter plate with non-binding surface. For high-throughput application in the 1536-well microtiter plate format, volumes of the reagent mixes were adjusted, maintaining the volumetric ratio. Proteins POLRMT (NM_172551.3), TFAM (NM_009360.4) and TFB2M (NM_008249.4) were diluted from their stocks to working concentrations of 150 nM, 1.8 μM and 330 nM respectively, in a dilution buffer containing 100 mM Tris-HCl pH 8.0, 200 mM NaCl, 10% (v/v) glycerole, 2 mM glutathione (GSH), 0.5 mM EDTA and 0.1 mg/mL BSA. Protein dilutions and template DNA, comprising a pUC18 plasmid encoding the mitochondrial light strand promoter, restriction linearized proximal to the promoter 3′-end (pUC-LSP), were mixed at the twofold final assay-concentration in a reaction buffer, containing 10 mM Tris-HCl pH 7.5, 10 mM MgCl2, 40 mM NaCl, 2 mM GSH, 0.01% (w/v) Tween-20 and 0.1 mg/mL BSA.
5 μL of this mix were dispensed, depending on the chosen microtiter plate format, using multi-channel pipettes or a Multidrop® dispenser (Thermo Fisher Scientific, Waltham Mass.) into the wells of a microtiter plate and incubated at room temperature (RT) for 10 min. Chemical compounds under scrutiny in the assay were applied using contact-free acoustic droplet-dispensing (Echo520® Labcyte Inc., Sunnyvale Calif.) from 10 mM compound stocks in 100% DMSO, to a final concentration of 10 μM or in serial dilution series of the required concentration range. Equal amounts of DMSO without any compound were added to positive control samples, followed by an incubation step at RT for 10 min.
The enzymatic reaction was started by the addition of 5 μL of a mix of dNTPs in reaction buffer to a final concentration of 500 μM each. No nucleotide mix was added to negative control samples. The content of the wells was mixed using a VarioTeleshaker™ (Thermo Fisher Scientific, Waltham Mass.) at 1500 rpm for 45 sec after which the microtiter plate was centrifuged at 500×g for 1 min. The samples were incubated for 2 h at RT with humidity control to avoid evaporation. The detection reagents were prepared in a buffer that was composed, such that the enzymatic reaction was terminated due to chelating of Mg-ions and increased ionic strength, containing 50 mM Tris-HCl pH 7.5, 700 mM NaCl, 20 mM EDTA, and 0.01% (w/v) Tween-20. Importantly Eu-cryptate-coupled streptavidin had to be preincubated with a 100-fold molar excess of a random sequence oligonucleotide for 10 min at RT in the dark to block unspecific binding of single stranded RNA to the protein. Subsequently, the blocked streptavidin(-Eu) was mixed with the DNA-probes on ice and kept away from light until use. […]

[2] = test system: mitochondrial transcription (7S RNA) in HeLa cells; test: Quantitative real time-PCR assay of inhibition of mitochondrial transcription (7S RNA) in HeLa cells; type: cell-based; conditions: Homo sapiens, 4 h incubation, Example 5, read-out: cellular qPCR assay IMT (IC-50)
Procedure: Quantitative real-time PCR (qRT-PCR), based on the TaqMan™ (Thermo Fisher Scientific, Waltham Mass.) technology, was carried out essentially as described in (Heid et al. 1996). HeLa cells were plated one day before compound treatment in RPMI medium supplemented with 10% Fetal Calf Serum and 2 mM L-glutamine. Cells were incubated with dilution series of compounds or vehicle (DMSO) for 4 h, prior to harvest and extraction of the RNA using the RNeasy Mini Kit (Qiagen, Hilden D), according to the manufacturer's instructions. RNA concentrations were measured spectroscopically, using a NanoDrop-2000 (Thermo Fisher Scientific, Waltham Mass.) and normalized prior to cDNA synthesis, using a ‘High-Capacity cDNA Reverse Transcription Kit’ (Thermo Fisher Scientific, Waltham Mass.). qRT-PCR was carried out using the ‘TaqMan Fast Advance Master Mix’ (Thermo Fisher Scientific, Waltham Mass.) on a 7500 Fast Real-Time PCR machine (Applied Biosystems, Foster City Calif.)
For these measurements, three genes were used to compare the effect of the scrutinized compounds in relation to their concentration. The POLRMT-gene was used to detect potential influences on nuclear transcription. Mitochondrial transcription in vivo was monitored by measurements 7S RNA. The TBP (TATA-box binding protein) gene was employed as the control (housekeeping gene) during qRT-PCR. The short-lived mitochondrial 7S RNA, which is not post-transcriptionally stabilized, allowed us to monitor rapid changes in mitochondrial transcription activity following compound addition. Biological triplicates were analyzed using the comparative CT Method (ΔΔCt) method (Bubner et al. 2004) and reported as Rq % values (Rq=Relative quantification=2-ΔΔCt).

Compound | IC50 [1] | IC50 [2]
CC(Oc1cc2oc(=O)cc(-c3ccccc3)c2cc1Cl)C(=O)NC[C@H]1CC[C@H](C(=O)O)CC1 (stereo partly shown) [Compound 89, 4-[[2-(6-chloro-2-oxo-4-phenyl-chromen-7-yl)oxypropanoylamino]methyl]cyclohexanecarboxylic acid] | 1 to 10 µM | 
O=C(COc1cc2oc(=O)cc(-c3ccccc3)c2cc1Cl)NCC(O)c1ccccc1 (stereo not shown) [Compound 90, 2-(6-chloro-2-oxo-4-phenyl-chromen-7-yl)oxy-N-(2-hydroxy-2-phenyl-ethyl)acetamide] | 1 to 10 µM | 
COC(=O)COc1ccc2c(-c3ccccc3)cc(=O)oc2c1C [Compound 91, methyl 2-(8-methyl-2-oxo-4-phenyl-chromen-7-yl)oxyacetate] | 1 to 10 µM | 
CCCOC(=O)COc1cc2oc(=O)cc(-c3ccccc3)c2cc1Cl [Compound 92, propyl 2-(6-chloro-2-oxo-4-phenyl-chromen-7-yl)oxyacetate] | 1 to 10 µM | 
CC(Oc1ccc2c(-c3ccccc3)cc(=O)oc2c1)C(=O)OCc1ccccc1 (stereo not shown) [Compound 93, benzyl 2-(2-oxo-4-phenyl-chromen-7-yl)oxypropanoate] | 1 to 10 µM | 
Cc1c(OCC(=O)OC(C)(C)C)ccc2c(-c3ccccc3)cc(=O)oc12 [Compound 94, tert-butyl 2-(8-methyl-2-oxo-4-phenyl-chromen-7-yl)oxyacetate] | 1 to 10 µM | 
O=C(COc1cc2oc(=O)cc(-c3ccccc3)c2cc1Cl)NC1C=CS(=O)(=O)C1 (stereo not shown) [Compound 95, 2-(6-chloro-2-oxo-4-phenyl-chromen-7-yl)oxy-N-(1,1-dioxo-2,3-dihydrothiophen-3-yl)acetamide] | 1 to 10 µM | 
CC(Oc1ccc2c(-c3ccccc3)cc(=O)oc2c1)C(=O)NC(C(=O)O)c1ccccc1 (stereo not shown) [Compound 96, 2-[2-(2-oxo-4-phenyl-chromen-7-yl)oxypropanoylamino]-2-phenyl-acetic acid] | 1 to 10 µM | 
CCCc1cc2c(-c3ccccc3)cc(=O)oc2cc1OC(C)C(=O)O (stereo not shown) [Compound 97, 2-(2-oxo-4-phenyl-6-propyl-chromen-7-yl)oxypropanoic acid] | 1 to 10 µM | 
O=C(COc1cc2oc(=O)cc(-c3ccccc3)c2cc1Cl)NC[C@H]1CC[C@H](C(=O)O)CC1 [Compound 98, 4-[[[2-(6-chloro-2-oxo-4-phenyl-chromen-7-yl)oxyacetyl]amino]methyl]cyclohexanecarboxylic acid] | 1 to 10 µM | 
O=C(COc1cc2oc(=O)cc(-c3ccccc3)c2cc1Cl)NCc1ccccn1 [Compound 99, 2-(6-chloro-2-oxo-4-phenyl-chromen-7-yl)oxy-N-(2-pyridylmethyl)acetamide] | 1 to 10 µM | 

Continued, values first:

IC50 [1] | IC50 [2] | Compound
0.1 to 1 µM | < 0.01 µM | CC(Oc1ccc2c(-c3ccccc3)cc(=O)oc2c1)C(=O)OC(C)(C)C (stereo not shown) [Compound 1, tert-butyl 2-(2-oxo-4-phenyl-chromen-7-yl)oxypropanoate]
0.1 to 1 µM | 0.01 to 0.05 µM | CC(Oc1ccc2c(-c3ccccc3)cc(=O)oc2c1)C(=O)N(C)C (stereo not shown) [Compound 2, N,N-dimethyl-2-(2-oxo-4-phenyl-chromen-7-yl)oxy-propanamide]
0.02 to 0.1 µM | 0.01 to 0.05 µM | CCOC(=O)C(C)Oc1ccc2c(-c3cccc(F)c3)cc(=O)oc2c1 (stereo not shown) [Compound 7, ethyl 2-[4-(3-fluorophenyl)-2-oxo-chromen-7-yl]oxypropanoate]
0.1 to 1 µM | 0.05 to 0.5 µM | CC(C)NC(=O)C(C)Oc1ccc2c(-c3ccccc3)cc(=O)oc2c1 (stereo not shown) [Compound 12, N-isopropyl-2-(2-oxo-4-phenyl-chromen-7-yl)oxy-propanamide]
0.1 to 1 µM | 0.05 to 0.5 µM | COC(=O)C1CCCN(C(=O)C(C)Oc2ccc3c(-c4ccccc4)cc(=O)oc3c2)C1 (stereo not shown) [Compound 15, methyl 1-[2-(2-oxo-4-phenyl-chromen-7-yl)oxypropanoyl]piperidine-3-carboxylate]
< 0.02 µM | < 0.01 µM | CC(Oc1ccc2c(-c3ccccc3)cc(=O)oc2c1)C(=O)N1CCCC(C#N)C1 (stereo not shown) [Compound 19, 1-[2-(2-oxo-4-phenyl-chromen-7-yl)oxypropanoyl]piperidine-3-carbonitrile]
1 to 10 µM | 0.05 to 0.5 µM | CCNC(=O)C(C)Oc1ccc2c(-c3ccccc3)cc(=O)oc2c1 (stereo not shown) [Compound 30, N-ethyl-2-(2-oxo-4-phenyl-chromen-7-yl)oxy-propanamide]
0.1 to 1 µM | 0.05 to 0.5 µM | CC(Oc1ccc2c(-c3ccccc3)cc(=O)oc2c1)C(=O)N1CCCC1 (stereo not shown) [Compound 31, 7-(1-methyl-2-oxo-2-pyrrolidin-1-yl-ethoxy)-4-phenyl-chromen-2-one]
0.1 to 1 µM | 0.01 to 0.05 µM | CCOC(=O)C(C)(C)Oc1ccc2c(-c3ccccc3)cc(=O)oc2c1 [Compound 32, ethyl 2-methyl-2-(2-oxo-4-phenyl-chromen-7-yl)oxy-propanoate]
0.1 to 1 µM | < 0.01 µM | CCOC(=O)[C@@H](C)Oc1ccc2c(-c3ccccc3)cc(=O)oc2c1 [Compound 33, ethyl (2R)-2-(2-oxo-4-phenyl-chromen-7-yl)oxypropanoate]
1 to 10 µM |  | O=C(COc1cc2oc(=O)cc(-c3ccccc3)c2cc1Cl)NCCN1CCOCC1 [Compound 83, 2-(6-chloro-2-oxo-4-phenyl-chromen-7-yl)oxy-N-(2-morpholinoethyl)acetamide]
1 to 10 µM |  | NC(=O)COc1cc2oc(=O)cc(-c3ccccc3)c2cc1Cl [Compound 84, 2-(6-chloro-2-oxo-4-phenyl-chromen-7-yl)oxyacetamide]
1 to 10 µM |  | O=C(O)C1CCCN(C(=O)COc2cc3oc(=O)cc(-c4ccccc4)c3cc2Cl)C1 (stereo not shown) [Compound 85, 1-[2-(6-chloro-2-oxo-4-phenyl-chromen-7-yl)oxyacetyl]piperidine-3-carboxylic acid]
1 to 10 µM |  | O=C(COc1cc2oc(=O)cc(-c3ccccc3)c2cc1Cl)NC1CCCCCCC1 [Compound 86, 2-(6-chloro-2-oxo-4-phenyl-chromen-7-yl)oxy-N-cyclooctyl-acetamide]
1 to 10 µM |  | CCOC(=O)C(C)Oc1cc(F)c2c(-c3ccccc3)cc(=O)oc2c1 (stereo not shown) [Compound 87, ethyl 2-(5-fluoro-2-oxo-4-phenyl-chromen-7-yl)oxypropanoate]
1 to 10 µM |  | O=C(O)COc1cc2oc(=O)cc(-c3ccccc3)c2cc1Cl [Compound 88, 2-(6-chloro-2-oxo-4-phenyl-chromen-7-yl)oxyacetic acid]
